Data published in patent publication US10828269B2, “Reducing muscle atrophy by administering astaxanthin” (FUJI CHEMICAL INDUSTRIES CO., LTD., priority 2004, dated 2020).

Columns and labels:
[1] = relative to β-carotene; cited from earlier work
[2] = Takahashi Jiro et al, Rinsho Iyaku 2004; cited from earlier work
[3] = system: murine thymoma viral (v-akt) oncogene homolog 2; experiment: GENEchip mRNA expression in gastrocnemius; assay type: in vivo, rat; conditions: probe 1387353_at
Procedure: (§1) After the period of test breeding, kidney was removed and frozen at −80° C. Using an LM200 system (Olympus Corporation), the renal glomerulus was cut from kidney of mice while keeping low temperature. tRNA of renal glomerulus was extracted using tRNA extraction regent “Isogen” (produced by Nippon Gene Co., Ltd.), and then preparation of cRNA and hybridization were performed according to the Affymetrix GeneChip Eukaryotic Small Sample Target Labeling Assay Ver. II.
(§2) (1) Synthesis of first strand cDNA: 1 μL of total RNA solution and 1 of 5 μM T7-Oligo(dT) primer were mixed, heated at 70° C. for 6 minutes, and then cooled at 4° C. for 2 minutes. 3 μL of RT_Premix_1 (1.5 μL DEPC-treated water, 4 μL 5× First strand Buffer, 2 μL DTT (0.1 M), 1.5 μL dNTP Mix (10 mM), 1 μL RNase inhibitor (40 U/μL), and 2 μL Super-Script II (200 U/μL)) was added and reverse transcribed at 42° C. for 1 hour. The sample was heated at 70° C. for 10 minutes to inactivate Super Script II, and then cooled to 4° C. (2) Synthesis of second strand cDNA: 32.5 μl of SS_Premix_1 (91 μL DEPC-treated water, 30 μL 5× Second Strand Buffer, 3 μL dNTP (10 mM), 1 μL E. coli DNA ligase (10 U/μL); 4 μL E. coli DNA polymerase (10 U/μL), and 1 μL RNase H (2 U/μL)) was added to the first strand cDNA solution and allowed to react for 2 hours at 16° C. (3) To the resulting cDNA, was added 1 μL T4 DNA polymerase (5 U/μl) and allowed to react for 10 minutes at 16° C., and purified by ethanol precipitation. (4) In vitro transcription: To the dried double-stranded cDNA pellet, was added 10 μL of reagents (4 μL DEPC-treated water, 4 μL premixed NTPs, 1 μL 10× reaction buffer, and 1 μL 10× enzyme mix), and allowed to react at 37° C. in a water bath for 6 hours. (5) First cycle cRNA was purified using the RNeasy Mini Kit in accordance with the protocol in the handbook (QIAGEN). (6) Subsequently, for the amplification and labeling, the cRNA sample was mixed with random primers (0.2 μg/μL), treated at 70° C. for 10 minutes, cooled on ice for 2 minutes, 5 μL of RT_Premix_2 (5× First Strand Buffer, DTT (0.1 M), dNTP mix (10 mM), RNase inhibitor (40 U/μL), and SuperScript II (200 U/μL) was added, and allowed to react at 42° C. for 1 hour. (7) Next, Second Sstrand cDNA synthesis was carried out by adding 5 μM T7-Oligo(dT) promoter treating at 70° C. for 6 minutes, cooling at 4° C., and adding 62 μL of SS_Premix_2 (43 μL it DEPC-treated water, 15 μL 5× Second Strand Buffer, 1.5 μL dNTP mix (10 mM), and 2 μL E. coli DNA polymerase (10 U/μL)). (8) To the resulting cDNA, was treated added 1 μL of T4 DNA polymerase (5 U/μL), allowed to react at 16° C. for 10 minutes, and purified by ethanol precipitation. (9) To perform in vitro transcription and labeling with the ENZO BioArray High Yield RNA Transcript Labeling Kit, 40 μL of reagents (22 μL DEPC-treated solution, 4 μL 10×HY reaction buffer, 4 μL 10× biotin-labeled ribonucleotides, 4 μL 10×DTT, 4 μL 10× RNase to inhibition mix, and 2 μL 20× T7 RNA polymerase) were added, and allowed to react at 37° C. for 4 hours. (10) Labeled cRNA target was purified with RNeasy columns. (11) The fragmentation and hybridization were performed according to “GeneChip Expression Analysis Technical Manual”.
(§3) The prepared labeled cRNA was hybridized to a GeneChip “mouse Expression Set 430A, representing a total of 22,690 mouse transcripts” (Affymetrix). For data analysis, the GeneChip Analysis Suite Ver. 5.1 (Affymetrix) was used. All microarrays were scaled to a target intensity of 1000 and were compared with background, noise, and overall staining intensity. Differentially expressed transcripts were identified by algorithms of the software y Affymetrix.
(§4) 9-week-old Wistar male rats were bred each being fed a normal diet for breeding and water ad libitum under the conditions with a 12 hours light-dark cycle at a temperature of 21° C. to 25° C. and were accustomed to the environment in advance. […]

[4] = system: Protein phosphatase 3, catalytic subunit gamma isoform; experiment: GENEchip mRNA expression in gastrocnemius; assay type: in vivo, rat; conditions: probe 1398469_at
Procedure: [The source words this procedure for another organism and reports this organism under the same test.] as §1, §2, §3, §4

[5] = system: ATP-binding cassette, sub-family B (MDR/TAP), member; experiment: GENEchip mRNA expression in gastrocnemius; assay type: in vivo, rat; conditions: probe 1369161_at
Procedure: as §1, §2, §3, §4

[6] = system: very low density lipoprotein receptor; experiment: GENEchip mRNA expression in gastrocnemius; assay type: in vivo, rat; conditions: probe 1369098_at
Procedure: as §1, §2, §3, §4

neuronatin = experiment: GENEchip mRNA expression in gastrocnemius; assay type: in vivo, rat; conditions: probe 1369999_a_at
Procedure: [The source words this procedure for another organism and reports this organism under the same test.] as §1, §2, §3, §4

[7] = system: transforming growth factor, beta 2; experiment: GENEchip mRNA expression in gastrocnemius; assay type: in vivo, rat; conditions: probe 1387172_a_at
Procedure: as §1, §2, §3, §4

[8] = denervated left leg gastrocnemius, astaxanthin group vs control group
[9] = denervated left leg gastrocnemius, astaxanthin-administered group
[10] = right leg (control) gastrocnemius, astaxanthin group vs control group
[11] = right leg (control) gastrocnemius, astaxanthin-administered group

CC1=C(/C=C/C(C)=C/C=C/C(C)=C/C=C/C=C(C)/C=C/C=C(C)/C=C/C2=C(C)C(=O)C(O)CC2(C)C)C(C)(C)CC(O)C1=O (stereo not drawn) [astaxanthin, 3,3′-dihydroxy-β,β-carotene-4,4′-dione]
antioxidant effect, times as strong as β-carotene [1]: about 40 times
mutagenicity [2]: has not been observed having any mutagenicity
gene expression intensity ratio ad/nd [3, 8]: 0.67
luminescence intensity ad [3, 9]: 1042.6
gene expression intensity ratio ac/nc [3, 10]: 0.83
luminescence intensity ac [3, 11]: 715.4
gene expression intensity ratio ad/nd [4, 8]: 1.90
luminescence intensity ad [4, 9]: 333.1
gene expression intensity ratio ac/nc [4, 10]: 1.09
luminescence intensity ac [4, 11]: 523.6
gene expression intensity ratio ad/nd [5, 8]: 1.41
luminescence intensity ad [5, 9]: 306.9
gene expression intensity ratio ac/nc [5, 10]: 1.34
luminescence intensity ac [5, 11]: 677.1
gene expression intensity ratio ad/nd [6, 8]: 1.49
luminescence intensity ad [6, 9]: 318
gene expression intensity ratio ac/nc [6, 10]: 1.00
luminescence intensity ac [6, 11]: 500.5
gene expression intensity ratio ad/nd (neuronatin; [8]): 0.61
luminescence intensity ad (neuronatin; [9]): 640.7
gene expression intensity ratio ac/nc (neuronatin; [10]): 0.79
luminescence intensity ac (neuronatin; [11]): 106.4
gene expression intensity ratio ad/nd [7, 8]: 0.57
luminescence intensity ad [7, 9]: 677.8
gene expression intensity ratio ac/nc [7, 10]: 1.06
luminescence intensity ac [7, 11]: 479.9
